molecular target: T1, AR (Homo sapiens, UniProt P10275, T878A); test: AR transcriptional activity, LNCaP-ARR2PB-eGFP reporter cells; format: cell-based; conditions: read-out: IC50 AR transcriptional activities
T1 construct: into the androgen-dependent PCa cells (LNCaP); endogenous in cells; host or cells: LNCaP-ARR2PB-eGFP
T1 sequence (P10275 1-920 T878A): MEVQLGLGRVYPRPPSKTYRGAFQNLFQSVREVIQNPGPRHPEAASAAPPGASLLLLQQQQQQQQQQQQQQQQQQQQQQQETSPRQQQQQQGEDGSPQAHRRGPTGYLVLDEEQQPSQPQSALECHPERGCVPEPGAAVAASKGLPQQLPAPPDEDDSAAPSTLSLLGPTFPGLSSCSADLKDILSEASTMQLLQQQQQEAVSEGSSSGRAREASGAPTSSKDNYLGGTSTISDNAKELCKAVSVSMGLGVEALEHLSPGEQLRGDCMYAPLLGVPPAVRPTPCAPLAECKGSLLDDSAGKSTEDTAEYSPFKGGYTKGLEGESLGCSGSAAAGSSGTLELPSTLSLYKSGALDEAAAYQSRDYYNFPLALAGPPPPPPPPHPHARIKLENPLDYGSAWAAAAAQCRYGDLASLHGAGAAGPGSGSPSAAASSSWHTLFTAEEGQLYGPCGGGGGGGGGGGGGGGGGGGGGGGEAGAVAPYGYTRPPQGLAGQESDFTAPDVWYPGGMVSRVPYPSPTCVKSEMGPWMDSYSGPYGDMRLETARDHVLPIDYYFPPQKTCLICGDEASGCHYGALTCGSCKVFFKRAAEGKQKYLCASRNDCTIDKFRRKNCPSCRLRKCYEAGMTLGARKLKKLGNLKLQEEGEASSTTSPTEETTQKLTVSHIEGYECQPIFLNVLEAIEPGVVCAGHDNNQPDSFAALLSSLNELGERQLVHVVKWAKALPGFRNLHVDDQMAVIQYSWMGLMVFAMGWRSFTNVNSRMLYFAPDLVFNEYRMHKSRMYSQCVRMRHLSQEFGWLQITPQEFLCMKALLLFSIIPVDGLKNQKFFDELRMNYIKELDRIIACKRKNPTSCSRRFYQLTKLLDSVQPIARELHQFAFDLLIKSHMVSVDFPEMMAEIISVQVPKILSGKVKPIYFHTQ
Description: Detection principles: We conducted a stable transfection of promoter ARR2PB known for its strong AR responsiveness, into the androgen-dependent PCa cells (LNCaP). The expression of enhanced green fluorescent protein (eGFP) is depending on the degree of activation of AR. Therefore, LNCaP-ARR2PB-eGFP cell line could quantitatively determine the AR antagonistic activities of the compounds by evaluating the expression of eGFP.

| SMILES | IC50 [µM] |
| --- | --- |
| CO/N=C(\C)Cc1nsc(NC(=O)c2cc(-c3cccc(C(F)(F)F)c3)oc2C)n1 [Compound A-70, N-(3-(2-(methoxyimino)propyl)-1,2,4-thiadiazol-5-yl)-2-methyl-5-(3-(trifluoromethyl)phenyl)furan-3-carboxamide] | 0.88 |
| CC(O)Cc1nsc(NC(=O)c2cc(-c3cccc(C(F)(F)F)c3)oc2C(F)(F)F)n1 (stereo not shown) [Compound E-12, N-(3-(2-hydroxypropyl)-1,2,4-thiadiazol-5-yl)-2-(trifluoromethyl)-5-(3-(trifluoromethyl)phenyl)furan-3-carboxamide] | 1.57 |
| CC(Cc1nsc(NC(=O)c2cc(-c3cccc(OC(F)F)c3)co2)n1)N1CCN(C)CC1 (stereo not shown) [Compound G-10, 4-(3-(Difluoromethoxy)phenyl)-N-(3-(2-(4-methylpiperazin-1-yl)propyl)-1,2,4-thiadiazol-5-yl)furan-2-carboxamide] | 15.3 |
| CC(=O)Cc1nsc(NC(=O)c2coc(-c3cccc(C(F)(F)F)c3)c2)n1 [Compound B-1, N-(3-(2-oxopropyl)-1,2,4-thiadiazol-5-yl)-5-(3-(trifluoromethyl)phenyl)furan-3-carboxamide] | 18.6 |
| CC(Cc1nsc(NC(=O)c2cc(-c3cccc(C(F)(F)F)c3)oc2C(F)(F)F)n1)N1CCCC1 (stereo not shown) [Compound E-6, N-(3-(2-(pyrrolidin-1-yl)propyl)-1,2,4-thiadiazol-5-yl)-2-(trifluoromethyl)-5-(3-(trifluoromethyl)phenyl) furan-3-carboxamide] | 3.38 |
| COc1cccc(-c2cc(C(=O)Nc3nc(CC(C)=O)ns3)oc2C)c1 [Compound F-3, 4-(3-Methoxyphenyl)-5-methyl-N-(3-(2-oxopropyl)-1,2,4-thiadiazol-5-yl)furan-2-carboxamide] | 22.4 |
| CC(O)(Cc1nsc(NC(=O)c2cc(-c3cccc(C(F)(F)F)c3)oc2C(F)(F)F)n1)C(F)(F)F (stereo not shown) [Compound E-17, N-(3-(3,3,3-trifluoro-2-hydroxy-2-methylpropyl)-1,2,4-thiadiazol-5-yl)-2-(trifluoromethyl)-5-(3-(trifluoromethyl)phenyl)furan-3-carboxamide] | 0.79 |
| CC(=O)Cc1nsc(NC(=O)c2cc(-c3cccc(Br)c3)oc2C)n1 [Compound A-9, 5-(3-Bromophenyl)-2-methyl-N-(3-(2-oxopropyl)-1,2,4-thiadiazol-5-yl)furan-3-carboxamide] | 2.36 |
| Cc1sc(-c2cccc(C#N)c2)cc1C(=O)Nc1nc(CC(C)N2CCCCC2)ns1 (stereo not shown) [Compound C-12, 5-(3-Cyanophenyl)-2-methyl-N-(3-(2-(piperidin-1-yl)propyl)-1,2,4-thiadiazol-5-yl)thiophene-3-carboxamide] | 5.77 |
| CC(Cc1nsc(NC(=O)c2cc(-c3cccc(C(F)(F)F)c3)sc2C)n1)=C(F)F [Compound C-30, N-(3-(3,3-difluoro-2-methylallyl)-1,2,4-thiadiazol-5-yl)-2-methyl-5-(3-(trifluoromethyl)phenyl)thiophene-3-carboxamide] | 12.7 |
| Cc1oc(-c2cccc(C(F)(F)F)c2)cc1C(=O)Nc1nc(CC(C)N2CCN(C)CC2)ns1 (stereo not shown) [Compound A-43, 2-Methyl-N-(3-(2-(4-methylpiperazin-1-yl)propyl)-1,2,4-thiadiazol-5-yl)-5-(3-(trifluoro-methyl)phenyl)furan-3-carboxamide] | 0.04 |
| Cc1oc(-c2cccc(C(F)(F)F)c2)cc1C(=O)Nc1nc(CC(C)N)ns1 (stereo not shown) [Compound A-66, N-(3-(2-aminopropyl)-1,2,4-thiadiazol-5-yl)-2-methyl-5-(3-(trifluoromethyl)phenyl)furan-3-carboxamide] | 1.39 |
| CC(=O)Cc1nsc(NC(=O)c2cc(-c3cccc4ccccc34)oc2C)n1 [Compound A-11, 2-Methyl-5-(naphthalen-1-yl)-N-(3-(2-oxopropyl)-1,2,4-thiadiazol-5-yl)furan-3-carboxamide] | 4.24 |
